Assay results as given in patent US20260248963A1, “COMPOSITIONS FOR TREATING CANCER WITH KRAS MUTATIONS AND USES THEREOF” (AADIGEN, LLC, priority 2023, published 2026).

What was measured:
Format in all cases: cell-based
[1] = test system: MTRX-1133 resistant ASPC-1 cells; assay: Cell growth inhibition assay, MTRX-1133 resistant ASPC-1
Description: (§1) To identify mutations or regulatory mechanisms that would confer acquired resistance to KRAS^G12D inhibitor MTRX1133, ASPC-1 and PANC-1 cells harboring KRAS G12D were exposed to increasing concentrations of MTRX-1133 (up to 20 μM). […] Clones resistant to KRAS^G12D inhibitor were generated during the course of the treatment.
(§2) ADGN-123 nanoparticle corresponds to gRNA35A5 sgRNA/Cas9 mRNA (1/1 molar ratio) associated with ADGN peptide (ADGN-106-Hydro3 peptide or ADGN-108-R9) at molar ratio 20/1 (peptide/nucleic acid). ADGN-123 nanoparticles were evaluated on the three stable MTRX-1133 resistant PANC-1 clones and two ASPC-1 clones. PANC-1-C1, PANC-1-C2, PANC-1-C3, ASPC-1-C1 and ASPC-1-C2. Cells were cultured in 96-well plate format and treated with free mRNACas9-gRNA, or ADGN-123 (ADGN/mRNACas9-gRNA) complex (from 0.1-10 μM) on day 1. Cell proliferation was analyzed over a period of 5 days using CellTiter Glow kits on GlowMax (Promega) and cytotoxicity was analyzed at 72 hr after treatment using CellTiter Glow or MTT assays kits.

[2] = test system: parental PANC-1 cells harboring KRAS G12D; assay: Growth suppression of parental PANC-1 cells
Description: as §1

[3] = test system: parental ASPC-1 cells harboring KRAS G12D; assay: Growth suppression of parental ASPC-1 cells
Description: as §1

[4] = test system: MTRX-1133 resistant PANC-1 cells; assay: Cell growth inhibition assay, MTRX-1133 resistant PANC-1
Description: as §1, §2

- IC50 [1]: 2.08 ± 0.203 µM
- IC50 [4]: 4.75 ± 0.212 µM
Compound: C#Cc1c(F)ccc2cc(O)cc(-c3ncc4c(N5CC6CCC(C5)N6)nc(OC[C@@]56CCCN5C[C@H](F)C6)nc4c3F)c12 [MTRX-1133]
- Lowest concentration that suppressed the growth of parental cells [2]: 100 nM
- Lowest concentration that suppressed the growth of parental cells [3]: 100 nM
